Test results published in patent US10508120B2, “TYK2 inhibitors and uses thereof” (Nimbus Lakshmi, Inc., priority 2017, dated 2019).

Key:
[1] = molecular target: JAK2/JAK2 homdimeric complex (Homo sapiens (Human), UniProt O60674); test: GM-CSF Induced pSTAT5 in Human PBMC; type: cell-based; conditions: GM-CSF 5 ng/mL for 20 minutes, pSTAT5 by MSD, read-out: PBMC_GMCSF_pSTAT5 IC50
JAK2 kinase domain (JH1) = JAK2 kinase domain (JH1) (Homo sapiens (Human), UniProt O60674); test: JAK2 Radioactive Kinase Assay; type: biochemical; conditions: compound at 10 μM, ATP 10 μM; for inhibition at 10 µM: read-out: JAK2 JH1% Inhibition @ 10 μM
JAK2 kinase domain (JH1), sequence (O60674 849-1124): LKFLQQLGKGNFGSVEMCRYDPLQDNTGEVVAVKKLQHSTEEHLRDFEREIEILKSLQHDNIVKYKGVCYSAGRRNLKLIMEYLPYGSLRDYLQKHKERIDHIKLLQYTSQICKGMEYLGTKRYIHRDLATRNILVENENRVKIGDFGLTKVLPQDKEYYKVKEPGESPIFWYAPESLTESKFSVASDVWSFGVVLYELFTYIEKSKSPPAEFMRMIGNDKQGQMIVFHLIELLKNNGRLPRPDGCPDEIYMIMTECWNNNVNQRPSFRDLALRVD
Method in brief: (§1)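 Single-point screen: 10 μM test compound, radioactive kinase read-out, percent inhibition reported for each kinase domain.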

[2] = molecular target: Tyk2/JAK2 (heterodimeric complex) (Homo sapiens (Human), UniProt P29597); test: IL-12 Induced pSTAT4 in Human PBMC; type: cell-based; conditions: 1.7 ng/mL IL-12
Tyk2/JAK2 (heterodimeric complex), sequence (P29597 whole entry, other chains not shown): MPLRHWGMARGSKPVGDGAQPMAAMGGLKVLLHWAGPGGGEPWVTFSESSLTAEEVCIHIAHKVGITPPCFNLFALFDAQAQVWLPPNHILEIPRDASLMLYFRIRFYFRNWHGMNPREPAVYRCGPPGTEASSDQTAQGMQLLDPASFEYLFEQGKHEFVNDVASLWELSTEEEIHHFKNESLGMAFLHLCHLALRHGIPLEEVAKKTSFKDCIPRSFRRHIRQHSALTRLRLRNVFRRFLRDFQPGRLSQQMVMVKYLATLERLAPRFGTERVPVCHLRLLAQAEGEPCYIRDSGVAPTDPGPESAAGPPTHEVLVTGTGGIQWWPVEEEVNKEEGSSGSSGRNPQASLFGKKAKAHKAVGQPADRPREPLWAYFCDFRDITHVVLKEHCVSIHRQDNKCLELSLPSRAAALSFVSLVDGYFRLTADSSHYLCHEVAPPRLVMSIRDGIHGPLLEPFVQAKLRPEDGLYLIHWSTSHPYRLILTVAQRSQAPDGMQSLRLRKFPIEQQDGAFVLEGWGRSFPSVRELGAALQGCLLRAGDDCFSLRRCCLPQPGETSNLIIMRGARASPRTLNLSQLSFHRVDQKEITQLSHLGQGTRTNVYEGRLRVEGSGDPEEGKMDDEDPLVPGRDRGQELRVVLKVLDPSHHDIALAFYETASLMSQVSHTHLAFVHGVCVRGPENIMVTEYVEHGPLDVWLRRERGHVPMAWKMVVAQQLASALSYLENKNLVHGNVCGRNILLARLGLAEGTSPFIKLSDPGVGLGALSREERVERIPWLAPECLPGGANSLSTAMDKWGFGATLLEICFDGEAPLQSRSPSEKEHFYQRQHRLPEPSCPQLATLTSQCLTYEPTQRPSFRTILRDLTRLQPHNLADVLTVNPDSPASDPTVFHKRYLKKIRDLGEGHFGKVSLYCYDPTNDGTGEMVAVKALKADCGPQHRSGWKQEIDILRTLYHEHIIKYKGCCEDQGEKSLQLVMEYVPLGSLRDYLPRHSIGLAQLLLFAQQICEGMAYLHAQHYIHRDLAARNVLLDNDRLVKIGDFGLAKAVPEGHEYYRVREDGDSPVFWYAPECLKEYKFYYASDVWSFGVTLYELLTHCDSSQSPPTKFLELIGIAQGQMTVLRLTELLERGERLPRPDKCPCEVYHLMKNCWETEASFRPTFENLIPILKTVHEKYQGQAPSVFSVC
Source text: The IL-12 Induced pSTAT4 assay evaluates the inhibition of IL-12 induced STAT4 phophorylation mediated by Tyk2/JAK2 (heterodimeric complex).

[3] = molecular target: human TYK2 (JH2domain-pseudokinase) (Homo sapiens (Human), UniProt P29597); test: TYK2 JH2 Domain Binding Assay (KINOMEscan)
human TYK2 (JH2domain-pseudokinase), sequence (P29597 556-888): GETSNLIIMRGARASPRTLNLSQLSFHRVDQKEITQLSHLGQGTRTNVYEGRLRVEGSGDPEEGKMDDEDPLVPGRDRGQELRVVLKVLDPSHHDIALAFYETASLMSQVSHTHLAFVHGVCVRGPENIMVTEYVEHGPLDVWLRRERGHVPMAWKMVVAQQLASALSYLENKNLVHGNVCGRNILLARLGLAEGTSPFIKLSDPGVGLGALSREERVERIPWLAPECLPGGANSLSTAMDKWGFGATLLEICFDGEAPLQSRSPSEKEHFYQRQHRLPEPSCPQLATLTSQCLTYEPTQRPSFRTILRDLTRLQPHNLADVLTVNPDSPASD
Method in brief: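 Displacement of a DNA-tagged TYK2 JH2 fusion (human, aa G556–D888, HEK293 extract, <0.1 nM) from ligand-coated beads over 1 h at RT; binding buffer PBS/0.05% Tween 20/10 mM DTT/0.1% BSA.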

Tyk2 kinase domain (DH1) = Tyk2 kinase domain (DH1) (Homo sapiens (Human), UniProt P29597); test: Tyk2 Radioactive Kinase Assay; type: biochemical; conditions: compound at 10 μM, ATP 10 μM; for inhibition at 10 µM: read-out: Tyk2 JH1% Inhibition @ 10 μM
Tyk2 kinase domain (DH1), sequence (P29597 897-1176): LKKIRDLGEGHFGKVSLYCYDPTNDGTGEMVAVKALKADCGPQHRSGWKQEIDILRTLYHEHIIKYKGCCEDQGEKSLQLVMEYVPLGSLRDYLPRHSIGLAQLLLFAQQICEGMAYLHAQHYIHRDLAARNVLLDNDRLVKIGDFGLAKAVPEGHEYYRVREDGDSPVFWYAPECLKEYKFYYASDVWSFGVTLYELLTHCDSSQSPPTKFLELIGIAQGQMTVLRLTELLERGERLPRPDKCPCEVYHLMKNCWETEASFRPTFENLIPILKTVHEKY
Method in brief: as §1

JAK2/JAK2 homdimeric complex, sequence (O60674 whole entry, the tested form may be a part): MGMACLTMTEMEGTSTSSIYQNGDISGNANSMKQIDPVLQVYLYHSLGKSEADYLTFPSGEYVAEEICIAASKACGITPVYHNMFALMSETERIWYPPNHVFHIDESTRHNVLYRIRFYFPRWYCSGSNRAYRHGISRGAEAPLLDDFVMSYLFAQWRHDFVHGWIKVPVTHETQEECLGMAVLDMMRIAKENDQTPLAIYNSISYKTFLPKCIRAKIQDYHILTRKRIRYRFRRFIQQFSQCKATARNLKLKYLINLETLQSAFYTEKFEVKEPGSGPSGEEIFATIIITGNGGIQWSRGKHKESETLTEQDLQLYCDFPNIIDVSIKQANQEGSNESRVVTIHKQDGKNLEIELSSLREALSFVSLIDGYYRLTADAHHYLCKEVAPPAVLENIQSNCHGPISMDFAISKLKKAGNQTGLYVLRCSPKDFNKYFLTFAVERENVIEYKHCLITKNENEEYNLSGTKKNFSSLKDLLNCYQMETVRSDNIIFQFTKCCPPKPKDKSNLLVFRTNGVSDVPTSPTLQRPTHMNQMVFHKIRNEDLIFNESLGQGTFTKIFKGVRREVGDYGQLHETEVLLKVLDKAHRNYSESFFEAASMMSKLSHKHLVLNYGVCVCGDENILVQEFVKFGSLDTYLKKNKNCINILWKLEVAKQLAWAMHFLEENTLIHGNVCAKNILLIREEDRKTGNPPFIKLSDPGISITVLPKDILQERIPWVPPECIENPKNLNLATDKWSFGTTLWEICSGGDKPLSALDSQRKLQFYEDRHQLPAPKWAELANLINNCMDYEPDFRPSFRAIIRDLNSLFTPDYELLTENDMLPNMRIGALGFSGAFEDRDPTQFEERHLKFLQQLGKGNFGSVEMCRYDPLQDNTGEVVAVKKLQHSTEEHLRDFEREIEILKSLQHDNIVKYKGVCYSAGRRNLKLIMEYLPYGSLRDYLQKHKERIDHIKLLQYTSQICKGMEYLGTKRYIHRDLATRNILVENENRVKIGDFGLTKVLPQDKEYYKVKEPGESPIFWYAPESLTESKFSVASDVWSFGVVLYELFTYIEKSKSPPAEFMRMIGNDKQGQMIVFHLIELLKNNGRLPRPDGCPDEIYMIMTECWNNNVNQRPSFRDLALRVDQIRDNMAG
JAK2/JAK2 homdimeric complex, sequence (P32927 17-897 partner): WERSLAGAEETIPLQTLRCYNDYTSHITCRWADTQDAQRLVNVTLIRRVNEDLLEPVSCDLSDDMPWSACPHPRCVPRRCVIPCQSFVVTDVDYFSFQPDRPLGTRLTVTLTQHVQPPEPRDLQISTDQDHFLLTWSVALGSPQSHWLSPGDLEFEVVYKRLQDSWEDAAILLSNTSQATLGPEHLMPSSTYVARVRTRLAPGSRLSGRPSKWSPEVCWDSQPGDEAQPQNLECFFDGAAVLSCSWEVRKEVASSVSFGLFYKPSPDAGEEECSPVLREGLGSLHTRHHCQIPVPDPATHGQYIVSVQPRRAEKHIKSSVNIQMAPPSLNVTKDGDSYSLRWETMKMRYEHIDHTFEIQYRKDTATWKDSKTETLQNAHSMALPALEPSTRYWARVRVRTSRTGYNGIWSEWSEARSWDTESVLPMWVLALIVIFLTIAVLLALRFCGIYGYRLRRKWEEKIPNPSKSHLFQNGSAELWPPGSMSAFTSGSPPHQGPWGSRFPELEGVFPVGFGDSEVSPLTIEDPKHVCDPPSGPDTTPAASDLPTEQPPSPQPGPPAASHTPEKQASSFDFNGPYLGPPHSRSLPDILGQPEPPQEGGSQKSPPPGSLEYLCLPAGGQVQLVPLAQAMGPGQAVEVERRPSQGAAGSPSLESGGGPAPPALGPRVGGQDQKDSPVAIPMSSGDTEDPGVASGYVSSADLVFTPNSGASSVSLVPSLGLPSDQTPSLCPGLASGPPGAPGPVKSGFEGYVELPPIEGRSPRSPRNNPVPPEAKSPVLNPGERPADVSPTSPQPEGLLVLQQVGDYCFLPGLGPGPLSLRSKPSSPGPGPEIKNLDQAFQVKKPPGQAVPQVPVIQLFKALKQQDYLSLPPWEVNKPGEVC

SMILES | IC50 [1] | inhibition at 10 µM (JAK2 kinase domain (JH1)) | IC50 [2] | Kd [3] | inhibition at 10 µM (Tyk2 kinase domain (DH1)) | JAK2 JH1% Inhibition @ 10 μM (JAK2 kinase domain (JH1)) | Tyk2 JH1% Inhibition @ 10 μM (Tyk2 kinase domain (DH1))
CNc1cc(Nc2cccc3ocnc23)nc2c(C(=O)N[C@@H]3CC[C@H]3O)cnn12 (racemic) [I-756, 5-(benzo[d]oxazol-4-ylamino)-N-(2-hydroxycyclobutyl)-7-(methylamino) pyrazolo[1,5-a]pyrimidine-3-carboxamide] | > 50 µM | < 50% | 0.1 to 0.5 µM | < 0.0002 µM | < 50% |  | 
CNc1cc(-c2cn(C(C)C)c3ncccc23)nc2c(C(=O)N[C@@H]3C[C@@H]3F)cnn12 (stereo in doubt) [I-225, N-((1R,2S)-2-fluorocyclopropyl)-5-(1-isopropyl-1H-pyrrolo[2,3-b]pyridin-3-yl)-7-(methylamino)pyrazolo[1,5-a]pyrimidine-3-carboxamide] | > 50 µM | < 50% | < 0.1 µM | < 0.0002 µM | < 50% |  | 
CNc1cc(Nc2cccnc2OC)nc2c(C(=O)N[C@@H]3CC[C@H]3O)cnn12 (stereo in doubt) [I-363, N-((1R,2R)-2-hydroxycyclobutyl)-5-((2-methoxypyridin-3-yl)amino)-7-(methylamino)pyrazolo[1,5-a]pyrimidine-3-carboxamide] | > 50 µM | 50 to 70% | < 0.1 µM | < 0.0002 µM | < 50% |  | 
CNc1cc(Nc2cccnc2OC2CC2)nc2c(C(=O)N[C@@H]3CC[C@H]3O)cnn12 (stereo in doubt) [I-366, 5-((2-cyclopropoxypyridin-3-yl)amino)-N-((1R,2R)-2-hydroxycyclobutyl)-7-(methylamino)pyrazolo[1,5-a]pyrimidine-3-carboxamide] | > 50 µM | < 50% | < 0.1 µM | < 0.0002 µM | < 50% |  | 
[2H]C([2H])([2H])Nc1cc(Nc2cccnc2OC)nc2c(C(=O)N[C@@H]3C[C@@H]3F)cnn12 (stereo in doubt) [I-374, N-((1R,2S)-2-fluorocyclopropyl)-5-((2-methoxypyridin-3-yl)amino)-7-((methyl-d3)amino)pyrazolo[1,5-a]pyrimidine-3-carboxamide] | > 50 µM | < 50% | < 0.1 µM | < 0.0002 µM | < 50% |  | 
[2H]C([2H])([2H])Nc1cc(Nc2cccnc2OC2CC2)nc2c(C(=O)N[C@@H]3C[C@@H]3F)cnn12 (stereo in doubt) [I-375, 5-((2-cyclopropoxypyridin-3-yl)amino)-N-((1R,2S)-2-fluorocyclopropyl)-7-((methyl-d3)amino)pyrazolo[1,5-a]pyrimidine-3-carboxamide] | > 50 µM | 50 to 70% | < 0.1 µM | < 0.0002 µM | < 50% |  | 
COc1ncccc1Nc1cc(NCCCN2CCOCC2)n2ncc(C(=O)N[C@@H]3C[C@@H]3F)c2n1 (stereo in doubt) [I-377, N-((1R,2S)-2-fluorocyclopropyl)-5-((2-methoxypyridin-3-yl)amino)-7-((3-morpholinopropyl)amino)pyrazolo[1,5-a]pyrimidine-3-carboxamide] | > 50 µM | < 50% | 0.1 to 0.5 µM | 0.0002 to 0.001 µM | < 50% |  | 
[2H]C([2H])([2H])Oc1ncccc1Nc1cc(NC)n2ncc(C(=O)N[C@@H]3CC[C@@H]3O)c2n1 (stereo in doubt) [I-391, N-(2-hydroxycyclobutyl)-5-((2-(methoxy-d3)pyridin-3-yl)amino)-7-(methylamino)pyrazolo [1,5-a]pyrimidine-3-carboxamide] | > 50 µM | < 50% | < 0.1 µM | < 0.0002 µM | < 50% |  | 
CNc1cc(Nc2cccn(-c3nc(C)co3)c2=O)nc2c(C(=O)N[C@@H]3CC[C@H]3O)cnn12 (stereo in doubt) [I-658, N-((1R,2R)-2-hydroxycyclobutyl)-7-(methylamino)-5-((1-(4-methyloxazol-2-yl)-2-oxo-1,2-dihydropyridin-3-yl)amino)pyrazolo[1,5-a]pyrimidine-3-carboxamide] | > 50 µM | < 50% | < 0.1 µM | < 0.0002 µM | < 50% |  | 
CNc1cc(Nc2cc(C)cc(C)c2)nc2c(C(N)=O)cnn12 [I-2, 5-((3,5-dimethylphenyl)amino)-7-(methylamino)pyrazolo[1,5-a]pyrimidine-3-carboxamide] | > 50 µM | < 50% | < 0.1 µM | < 0.0002 µM | < 50% |  | 
CNc1cc(Nc2cc(F)cc(F)c2F)nc2c(C(=O)NC3CC3)cnn12 [I-5] | > 50 µM | < 50% | < 0.1 µM | < 0.0002 µM | < 50% |  | 
CNc1cc(Nc2cc(C)cc(F)c2)nc2c(C(=O)NC3CC3)cnn12 [I-6] | > 50 µM | < 50% | < 0.1 µM | < 0.0002 µM | < 50% |  | 

Now from value to molecule, other results behind:

IC50 [1] | inhibition at 10 µM (JAK2 kinase domain (JH1)) | IC50 [2] | Kd [3] | inhibition at 10 µM (Tyk2 kinase domain (DH1)) | SMILES | JAK2 JH1% Inhibition @ 10 μM (JAK2 kinase domain (JH1)) | Tyk2 JH1% Inhibition @ 10 μM (Tyk2 kinase domain (DH1))
> 12.5 µM | < 50% | < 0.1 µM | < 0.0002 µM | < 50% | CNc1cc(Nc2cccn(-c3ccn(C4CC4)n3)c2=O)nc2c(C(=O)N[C@@H]3C[C@@H]3F)cnn12 (stereo in doubt) [I-106, 5-((1-(1-cyclopropyl-1H-pyrazol-3-yl)-2-oxo-1,2-dihydropyridin-3-yl)amino)-N-((1R,2S)-2-fluorocyclopropyl)-7-(methylamino)pyrazolo[1,5-a]pyrimidine-3-carboxamide] |  | 
> 12.5 µM | < 50% | < 0.1 µM | < 0.0002 µM | < 50% | CNc1cc(Nc2cccn(-c3ccnc(C)n3)c2=O)nc2c(C(=O)N[C@@H]3C[C@@H]3F)cnn12 (stereo in doubt) [I-124, N-((1R,2S)-2-fluorocyclopropyl)-7-(methylamino)-5-((1-(2-methylpyrimidin-4-yl)-2-oxo-1,2-dihydropyridin-3-yl)amino)pyrazolo[1,5-a]pyrimidine-3-carboxamide] |  | 
> 12.5 µM |  | < 0.1 µM | < 0.0002 µM |  | [2H]C([2H])([2H])Oc1ncccc1Nc1cc(NC)n2ncc(C(=O)N[C@H]3CC[C@H]3O)c2n1 (stereo in doubt) [I-399, N-((1 S,2R)-2-hydroxycyclobutyl)-5-((2-(methoxy-d3)pyridin-3-yl)amino)-7-(methylamino) pyrazolo[1,5-a]pyrimidine-3-carboxamide] | A (percent inhibition at 10 μM lower than 50) | A (percent inhibition at 10 μM lower than 50)
> 2.5 µM | < 50% | < 0.1 µM | < 0.0002 µM | < 50% | CNc1cc(Nc2cccn(-c3ncc(C)s3)c2=O)nc2c(C(=O)N[C@H]3CC[C@@H]3O)cnn12 (stereo in doubt) [I-676, N-(2-hydroxycyclobutyl)-7-(methylamino)-5-((1-(5-methylthiazol-2-yl)-2-oxo-1,2-dihydropyridin-3-yl)amino)pyrazolo[1,5-a]pyrimidine-3-carboxamide] |  | 
> 12.5 µM | < 50% | < 0.1 µM | < 0.0002 µM | < 50% | CNc1cc(Nc2cc(F)ccc2F)nc2c(C(=O)NC3CC3)cnn12 [I-3] |  | 
> 12.5 µM | < 50% | < 0.1 µM | < 0.0002 µM | < 50% | CNc1cc(Nc2cccnc2OC)nc2c(C(=O)NC3CCC3)cnn12 [I-4] |  | 
> 12.5 µM | < 50% | < 0.1 µM | < 0.0002 µM | < 50% | CNc1cc(Nc2cccc(N3CCCC3=O)n2)nc2c(C(=O)NC3CC3)cnn12 [I-7] |  | 
> 2.5 µM | 70 to 90% | < 0.1 µM | 0.0002 to 0.001 µM | > 90% | CNc1cc(Nc2cccc(-c3nccs3)c2Cl)nc2c(C(N)=O)cnn12 [I-16] |  | 
> 2.5 µM | < 50% | < 0.1 µM | < 0.0002 µM | 70 to 90% | CNc1cc(Nc2cccc(-c3cnn(C)c3)c2Cl)nc2c(C(N)=O)cnn12 [I-17] |  | 
> 0.3 µM | < 50% | 0.1 to 0.5 µM | < 0.0002 µM | < 50% | CNc1cc(Nc2cc(C)cn(-c3cnn(C)c3)c2=O)nc2c(C(N)=O)cnn12 [I-31] |  | 
> 0.3 µM | < 50% | < 0.1 µM | < 0.0002 µM | < 50% | CCn1cc(Cl)cc(Nc2cc(NC)n3ncc(C(N)=O)c3n2)c1=O [I-35] |  | 
> 12.5 µM | < 50% | < 0.1 µM | < 0.0002 µM | < 50% | CNc1cc(-c2c[nH]c3c(C)cc(C)cc23)nc2c(C(N)=O)cnn12 [I-36, 5-(5,7-dimethyl-1H-indol-3-yl)-7-(methylamino)pyrazolo[1,5-a]pyrimidine-3-carboamide] |  | 
> 0.3 µM | < 50% | < 0.1 µM | < 0.0002 µM | < 50% | CNc1cc(Nc2cccc(N3CCCC3=O)n2)nc2c(C(N)=O)cnn12 [I-47] |  | 
